Square brackets hold non-standard residues; d marks the D form. Peptide text beside a SMILES is read from it. Aib = CC(C)(N)C(=O)O
Assays:
[1] = biological target: T1, human GLP-1 receptor (Homo sapiens, UniProt P43220); experiment: GLP-1 receptor potency assay (cAMP AlphaScreen, HEK293 cells stably expressing GLP-1R); format: cell-based; settings: cAMP response, HEK293 cells expressing human GLP-1R; read-out: EC50 GLP-1
T1 construct: expressed in transfected cells
From the text: (§1) One useful in vitro assay for measuring GLP-1 and GLP-2 receptor activity is quantitation of cAMP, i.e. 3′-5′-cyclic adenosine monophosphate, which is a second messenger essential in many biological processes, and one of the most ubiquitous mechanisms for regulating cellular functions. […] Test compounds eliciting an increase in the intracellular level of cAMP can be tested in these assays, and the response normalized relative to a positive and negative control (vehicle) to calculate the EC50 and maximal response from the concentration response curve using the 4-parameter logistic (4PL) nonlinear model for curve fitting.
The cDNA encoding the human glucagon-like peptide 1 receptor (GLP-1R) (primary accession number P43220) was cloned from the cDNA BC112126 (MGC:138331/IMAGE:8327594). The DNA encoding the GLP-1-R was amplified by PCR using primers encoding terminal restriction sites for subcloning. The 5′-end primers additionally encoded a near Kozak consensus sequence to ensure efficient translation. […] The PCR products encoding the GLP-1-R were subcloned into a mammalian expression vector containing a neomycin (G418) resistance marker. The mammalian expression vectors encoding the GLP-1-R were transfected into HEK293 cells by a standard calcium phosphate transfection method. 48 hours post-transfection, cells were seeded for limited dilution cloning and selected with 1 mg/ml G418 in the culture medium. Following 3 weeks in G418 selection clones were picked and tested in a functional GLP-1 receptor potency assay as described below.
(§2) The cAMP AlphaScreen assay from Perkin Elmer was used to quantitate the cAMP response to activation of the GLP1 and GLP2 receptor, respectively. […] Data from test compounds eliciting an increase in the intracellular level of cAMP were normalized relative to the positive and negative control (vehicle) to calculate the EC50 and maximal response from the concentration response curve.

[2] = biological target: T2, human GLP-2 receptor (Homo sapiens, UniProt O95838, D470N); experiment: GLP-2 receptor potency assay (cAMP AlphaScreen, HEK293 cells stably expressing GLP-2R); format: cell-based; settings: cAMP response, HEK293 cells expressing human GLP-2R
T2 sequence (O95838 1-553 D470N): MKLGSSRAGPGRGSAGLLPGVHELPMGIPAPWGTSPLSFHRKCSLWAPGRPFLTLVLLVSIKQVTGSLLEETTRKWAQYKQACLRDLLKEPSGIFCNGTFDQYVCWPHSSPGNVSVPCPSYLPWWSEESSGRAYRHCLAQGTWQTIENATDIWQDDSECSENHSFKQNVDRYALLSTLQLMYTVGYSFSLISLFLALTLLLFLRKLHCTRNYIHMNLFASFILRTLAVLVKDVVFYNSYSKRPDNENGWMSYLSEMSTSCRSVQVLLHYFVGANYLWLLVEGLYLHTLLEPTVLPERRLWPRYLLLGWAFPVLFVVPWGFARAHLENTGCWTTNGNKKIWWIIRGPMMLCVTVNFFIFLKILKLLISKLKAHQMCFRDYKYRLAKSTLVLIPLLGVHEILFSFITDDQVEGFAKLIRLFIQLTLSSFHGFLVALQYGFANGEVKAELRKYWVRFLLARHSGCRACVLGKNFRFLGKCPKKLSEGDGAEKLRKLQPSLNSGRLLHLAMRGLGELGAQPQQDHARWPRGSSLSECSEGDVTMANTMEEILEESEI
From the text: as §1
The hGLP2-R was purchased from MRC-geneservice, Babraham, Cambridge as an Image clone: 5363415 (11924-I17). For subcloning into a mammalian expression vector, primers for subcloning were obtained from DNA-Technology, Risskov, Denmark. The 5′ and 3′ primers used for the PCR reaction include terminal restriction sites for cloning and the context of the 5′ primer is modified to a Kozak consensus without changing the sequence of the product encoded by the ORF. A standard PCR reaction was run using Image clone 5363415 (11924-117) as a template with the above mentioned primers and Polymerase Herculase II Fusion in a total vol. of 50 μl. The generated PCR product was purified using GFX PCR and Gel band purification kit, digested with restriction enzymes and cloned into the mammalian expression vector using Rapid DNA Ligation Kit. Ligation reaction was transformed to XL10 Gold Ultracompetent cells and colonies were picked for DNA production using Endofree Plasmid maxi kit. Subsequent sequence analysis was conducted by MWG Eurofins, Germany.
HEK293 cells were transfected using the Lipofectamine PLUS transfection method. The day before transfection, HEK293 cells were seeded in two T75 flasks at a density of 2×10^6 cells/T75 flask in cell culturing medium without antibiotics. On the day of transfection, cells were washed with 1×DPBS and medium was replaced with Optimem to a volume of 5 mL/T75 flask before addition of Lipofectamine-plasmid complexes were added gently and drop wise to the cells in T75 flasks and replaced with growth medium after 3 hours and again to growth medium supplemented with 500 μg/mL G418 after 24 hours. Following 4 weeks in G418 selection, clones were picked and tested in a functional GLP-2 receptor potency assay as described below.
as §2

T1 sequence (P43220 24-463): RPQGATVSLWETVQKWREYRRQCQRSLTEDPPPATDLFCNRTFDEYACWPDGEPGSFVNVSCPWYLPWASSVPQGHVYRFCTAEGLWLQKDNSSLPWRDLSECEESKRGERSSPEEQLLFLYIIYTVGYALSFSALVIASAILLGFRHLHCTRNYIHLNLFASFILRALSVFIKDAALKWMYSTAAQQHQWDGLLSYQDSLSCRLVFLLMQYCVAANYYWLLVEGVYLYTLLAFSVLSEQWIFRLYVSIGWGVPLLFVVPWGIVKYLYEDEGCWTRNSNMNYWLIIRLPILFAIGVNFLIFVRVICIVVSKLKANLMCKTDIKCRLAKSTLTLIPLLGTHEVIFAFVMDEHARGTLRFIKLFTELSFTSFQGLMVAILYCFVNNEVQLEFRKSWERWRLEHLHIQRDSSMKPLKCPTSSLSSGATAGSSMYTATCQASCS

Row | SMILES | EC50 [1] [pM] | EC50 [2] [pM]
1 | CC[C@H](C)[C@H](NC(=O)[C@H](CC(C)C)NC(=O)[C@H](Cc1c[nH]c2ccccc12)NC(=O)[C@H](C)NC(=O)[C@@H](NC(=O)[C@H](Cc1ccccc1)NC(=O)[C@H](CC(=O)O)NC(=O)[C@H](CCCNC(=N)N)NC(=O)[C@H](C)NC(=O)[C@H](C)NC(=O)[C@H](CCC(N)=O)NC(=O)[C@H](CCC(=O)O)NC(=O)[C@H](CC(=O)O)NC(=O)[C@H](CC(C)C)NC(=O)[C@@H](NC(=O)[C@@H](NC(=O)[C@H](C)NC(=O)[C@H](CC(C)C)NC(=O)[C@H](CCC(=O)O)NC(=O)[C@H](CO)NC(=O)[C@@H](NC(=O)[C@H](Cc1ccccc1)NC(=O)[C@H](CO)NC(=O)CNC(=O)[C@H](CCC(=O)O)NC(=O)C(C)(C)NC(=O)[C@@H](N)Cc1c[nH]cn1)[C@@H](C)O)[C@@H](C)O)[C@@H](C)CC)[C@@H](C)CC)C(=O)N[C@@H](C)C(=O)N[C@@H](CCC(N)=O)C(=O)N[C@@H](CCCCN)C(=O)N[C@H](C(=O)N[C@H](C(=O)N[C@@H](CC(=O)O)C(=O)O)[C@@H](C)O)[C@@H](C)CC [Compound 25] (H-H[Aib]EGSFTSELATILDEQAARDFIAWLIAQKITD-OH) | 8 | 62
2 | CC[C@H](C)[C@H](NC(=O)[C@H](Cc1ccccc1)NC(=O)[C@H](CC(=O)O)NC(=O)[C@H](CCCNC(=N)N)NC(=O)[C@H](C)NC(=O)[C@H](C)NC(=O)[C@H](CCC(N)=O)NC(=O)[C@H](CCC(=O)O)NC(=O)[C@H](CC(=O)O)NC(=O)[C@H](CC(C)C)NC(=O)[C@@H](NC(=O)[C@@H](NC(=O)[C@H](C)NC(=O)[C@H](CC(C)C)NC(=O)[C@H](CCC(=O)O)NC(=O)[C@H](CO)NC(=O)[C@@H](NC(=O)[C@H](Cc1ccccc1)NC(=O)[C@H](CO)NC(=O)CNC(=O)[C@H](CCC(=O)O)NC(=O)C(C)(C)NC(=O)[C@@H](N)Cc1c[nH]cn1)[C@@H](C)O)[C@@H](C)O)[C@@H](C)CC)C(=O)N[C@@H](C)C(=O)N[C@@H](Cc1c[nH]c2ccccc12)C(=O)N[C@@H](CC(C)C)C(=O)N[C@@H](Cc1ccc(O)cc1)C(=O)N[C@@H](C)C(=O)N[C@@H](Cc1c[nH]cn1)C(=O)N[C@@H](CCCCN)C(=O)N[C@H](C(=O)N[C@H](C(=O)N[C@@H](CC(=O)O)C(=O)O)[C@@H](C)O)[C@@H](C)CC [Compound 28] (H-H[Aib]EGSFTSELATILDEQAARDFIAWLYAHKITD-OH) | 110 | 24
3 | CC[C@H](C)[C@H](NC(=O)[C@H](CC(C)C)NC(=O)[C@H](Cc1c[nH]c2ccccc12)NC(=O)[C@H](CC(N)=O)NC(=O)[C@@H](NC(=O)[C@H](Cc1ccccc1)NC(=O)[C@H](CC(=O)O)NC(=O)[C@H](CCCNC(=N)N)NC(=O)[C@H](C)NC(=O)[C@H](C)NC(=O)[C@H](CCC(N)=O)NC(=O)[C@H](CCC(=O)O)NC(=O)[C@H](CC(=O)O)NC(=O)[C@H](CC(C)C)NC(=O)[C@@H](NC(=O)[C@@H](NC(=O)[C@H](C)NC(=O)[C@H](CC(C)C)NC(=O)[C@H](CCC(=O)O)NC(=O)[C@H](CO)NC(=O)[C@@H](NC(=O)[C@H](Cc1ccccc1)NC(=O)[C@@H](NC(=O)CNC(=O)[C@H](CCC(=O)O)NC(=O)C(C)(C)NC(=O)[C@@H](N)Cc1c[nH]cn1)[C@@H](C)O)[C@@H](C)O)[C@@H](C)O)[C@@H](C)CC)[C@@H](C)CC)C(=O)N[C@@H](C)C(=O)N[C@@H](Cc1c[nH]cn1)C(=O)N[C@@H](CCCCN)C(=O)N[C@H](C(=O)N[C@H](C(=O)N[C@@H](CC(=O)O)C(=O)O)[C@@H](C)O)[C@@H](C)CC [Compound 33] (H-H[Aib]EGTFTSELATILDEQAARDFINWLIAHKITD-OH) | 4 | 41
4 | CC[C@H](C)[C@H](NC(=O)[C@H](CC(C)C)NC(=O)[C@H](Cc1c[nH]c2ccccc12)NC(=O)[C@H](C)NC(=O)[C@@H](NC(=O)[C@H](Cc1ccccc1)NC(=O)[C@H](CC(=O)O)NC(=O)[C@H](CCCNC(=N)N)NC(=O)[C@H](C)NC(=O)[C@H](C)NC(=O)[C@H](CCC(N)=O)NC(=O)[C@H](CCC(=O)O)NC(=O)[C@H](CC(=O)O)NC(=O)[C@H](CC(C)C)NC(=O)[C@@H](NC(=O)[C@@H](NC(=O)[C@H](C)NC(=O)[C@H](CC(C)C)NC(=O)[C@H](CCC(=O)O)NC(=O)[C@H](CO)NC(=O)[C@H](CO)NC(=O)[C@H](Cc1ccccc1)NC(=O)[C@@H](NC(=O)CNC(=O)[C@H](CCC(=O)O)NC(=O)C(C)(C)NC(=O)[C@@H](N)Cc1c[nH]cn1)[C@@H](C)O)[C@@H](C)O)[C@@H](C)CC)[C@@H](C)CC)C(=O)N[C@@H](C)C(=O)N[C@@H](Cc1c[nH]cn1)C(=O)N[C@@H](CCCCN)C(=O)N[C@H](C(=O)N[C@H](C(=O)N[C@@H](CC(=O)O)C(=O)O)[C@@H](C)O)[C@@H](C)CC [Compound 2] (H-H[Aib]EGTFSSELATILDEQAARDFIAWLIAHKITD-OH) | 46 | 34
5 | CC[C@H](C)[C@H](NC(=O)[C@H](Cc1ccccc1)NC(=O)[C@H](CC(=O)O)NC(=O)[C@H](CCCNC(=N)N)NC(=O)[C@H](C)NC(=O)[C@H](C)NC(=O)[C@H](CCC(N)=O)NC(=O)[C@H](CCC(=O)O)NC(=O)[C@H](CC(=O)O)NC(=O)[C@H](CC(C)C)NC(=O)[C@@H](NC(=O)[C@@H](NC(=O)[C@H](C)NC(=O)[C@H](CC(C)C)NC(=O)[C@H](CCC(=O)O)NC(=O)[C@H](CO)NC(=O)[C@@H](NC(=O)[C@H](Cc1ccccc1)NC(=O)[C@H](CO)NC(=O)CNC(=O)[C@H](CCC(=O)O)NC(=O)C(C)(C)NC(=O)[C@@H](N)Cc1c[nH]cn1)[C@@H](C)O)[C@@H](C)O)[C@@H](C)CC)C(=O)N[C@@H](C)C(=O)N[C@@H](Cc1c[nH]c2ccccc12)C(=O)N[C@@H](CC(C)C)C(=O)N[C@@H](Cc1ccc(O)cc1)C(=O)N[C@@H](CCC(=O)O)C(=O)N[C@@H](Cc1c[nH]cn1)C(=O)N[C@@H](CCCCN)C(=O)N[C@H](C(=O)N[C@H](C(=O)N[C@@H](CC(=O)O)C(=O)O)[C@@H](C)O)[C@@H](C)CC [Compound 23] (H-H[Aib]EGSFTSELATILDEQAARDFIAWLYEHKITD-OH) | 120 | 34
6 | CC[C@H](C)[C@H](NC(=O)[C@H](CC(C)C)NC(=O)[C@H](Cc1c[nH]c2ccccc12)NC(=O)[C@H](C)NC(=O)[C@@H](NC(=O)[C@H](Cc1ccccc1)NC(=O)[C@H](CC(=O)O)NC(=O)[C@H](CCCNC(=N)N)NC(=O)[C@H](C)NC(=O)[C@H](C)NC(=O)[C@H](CCC(N)=O)NC(=O)[C@H](CCC(=O)O)NC(=O)[C@H](CC(=O)O)NC(=O)[C@H](CC(C)C)NC(=O)[C@@H](NC(=O)[C@@H](NC(=O)[C@H](C)NC(=O)[C@H](CC(C)C)NC(=O)[C@H](CCC(=O)O)NC(=O)[C@H](CC(=O)O)NC(=O)[C@@H](NC(=O)[C@H](Cc1ccccc1)NC(=O)[C@@H](NC(=O)CNC(=O)[C@H](CCC(=O)O)NC(=O)C(C)(C)NC(=O)[C@@H](N)Cc1c[nH]cn1)[C@@H](C)O)[C@@H](C)O)[C@@H](C)O)[C@@H](C)CC)[C@@H](C)CC)C(=O)N[C@@H](C)C(=O)N[C@@H](Cc1c[nH]cn1)C(=O)N[C@@H](CCCCN)C(=O)N[C@H](C(=O)N[C@H](C(=O)N[C@@H](CC(=O)O)C(=O)O)[C@@H](C)O)[C@@H](C)CC [Compound 9] (H-H[Aib]EGTFTDELATILDEQAARDFIAWLIAHKITD-OH) | 7 | 41

Source: patent US11130793B2, “GLP-1/GLP-2 dual agonists” (Zealand Pharma A/S, priority 2016, dated 2021)
